Assay results as given in US20230075584A1, “INTRANASAL ADMINISTRATION OF GLUTAMATE CARBOXYPEPTIDASE (GCP-II) INHIBITORS” (The Johns Hopkins University, priority 2015, published 2023).
Several values for one entry are separate records, joined by “and”; a condition that tells them apart may be missing. Equal values may be shown once. Entries after “also recorded” stand apart in the source; their conditions may differ. Read-outs that look alike come from different tables or passages of the source.

Experiments:
[1] = non-human primates; halted development; cited from earlier work
[2] = purified enantiomers, intranasal
Experimental: Rodent i.n. and i.p. dosing: Studies were conducted in male Wistar rats (6-8 weeks; weighing between 200 gm to 250 gm) obtained from Harlan® Laboratories (Indianapolis, Ind.) that were maintained in a controlled environment and allowed food and water ad libitum. Intranasal administrations were performed according to previously described methods with minor modifications. Briefly, rats were anesthetized with a 1-1.5 mL intraperitoneal (i.p.) dose of 10% chloral hydrate (approved under the protocol RA #13), and kept under anesthesia with additional chloral hydrate as needed throughout the entire experiment. To prevent drainage of nasally dosed solution, the nasal cavity was isolated from the respiratory and gastrointestinal tracts. An incision was made along the neck, and the trachea isolated and transected. The upper part was tied off with a 3-0 silk suture, and the lower part cannulated with PE240 tubing to aid air breathing. Rats were maintained lying on their back, and in this position, given 10 μL (375 mg/mL) of the experimental drug solution per nostril using a micro-syringe connected to 1.5 cm PE-10 tube. The total dose received was 30 mg/kg for each drug solution.
Briefly, prior to extraction, frozen samples were thawed on ice. For plasma samples, 50 μL of the calibration standard or sample were transferred into silanized vials. For brain tissues, the samples were weighed in a 1.7 mL silanized vials to which 4 times the volume of methanol (dilution 1:5) was added. The tissues were stored in −20° C. for 1 h and then homogenized. The calibration curves were developed using plasma and brain from untreated animals as a matrix. For plasma, sample preparation involved a single liquid extraction by addition of 300 μL of methanol as extraction solution with internal standard, followed by vortexing for 30 s and then centrifugation at 12000×g for 10 min. Supernatant was transferred and evaporated to dryness at 40° C. under a gentle stream of nitrogen. For brain tissue, homogenized samples were vortexed and centrifuged as above, and 100 μL supernatant was mixed with 100 μL of internal standard in methanol, and then evaporated to dryness at 40° C. under a gentle stream of nitrogen. […] For derivatization, the residue was reconstituted with 100 μL of n-butanol with 3N HCl and samples were vortexed. The samples were heated at 60° C. in a shaking water bath for 30 min. At the end of 30 min, the derivatized samples were dried under a gentle stream of nitrogen. […] The samples were vortexed and centrifuged. Supernatant (75 μL) was transferred to a 250 μL polypropylene autosampler vial sealed with a Teflon cap and a volume of 10 μL was injected onto the ultral l performance liquid chromatography (UPLC) instrument for quantitative analysis using a temperature-controlled autosampler operating at 10° C.
Chromatographic analysis was performed using an Accela™ ultra high-performance system consisting of an analytical pump, and an autosampler coupled with TSQ Vantage mass spectrometer (Thermo Fisher Scientific Inc., Waltham Mass.). […] The mobile phase was composed of 0.1% formic acid in acetonitrile and 0.1% formic acid in H2O with gradient elution. The total run time for each analyte was 5.0 min.

[3] = target: glutamate carboxypeptidase II (GCP-II) (Homo sapiens, UniProt Q04609); conditions: GCP-II inhibition, Table 1; read-out: Potency (IC50); cited from earlier work
Sequence of glutamate carboxypeptidase II (GCP-II) (Q04609 whole entry, species assumed): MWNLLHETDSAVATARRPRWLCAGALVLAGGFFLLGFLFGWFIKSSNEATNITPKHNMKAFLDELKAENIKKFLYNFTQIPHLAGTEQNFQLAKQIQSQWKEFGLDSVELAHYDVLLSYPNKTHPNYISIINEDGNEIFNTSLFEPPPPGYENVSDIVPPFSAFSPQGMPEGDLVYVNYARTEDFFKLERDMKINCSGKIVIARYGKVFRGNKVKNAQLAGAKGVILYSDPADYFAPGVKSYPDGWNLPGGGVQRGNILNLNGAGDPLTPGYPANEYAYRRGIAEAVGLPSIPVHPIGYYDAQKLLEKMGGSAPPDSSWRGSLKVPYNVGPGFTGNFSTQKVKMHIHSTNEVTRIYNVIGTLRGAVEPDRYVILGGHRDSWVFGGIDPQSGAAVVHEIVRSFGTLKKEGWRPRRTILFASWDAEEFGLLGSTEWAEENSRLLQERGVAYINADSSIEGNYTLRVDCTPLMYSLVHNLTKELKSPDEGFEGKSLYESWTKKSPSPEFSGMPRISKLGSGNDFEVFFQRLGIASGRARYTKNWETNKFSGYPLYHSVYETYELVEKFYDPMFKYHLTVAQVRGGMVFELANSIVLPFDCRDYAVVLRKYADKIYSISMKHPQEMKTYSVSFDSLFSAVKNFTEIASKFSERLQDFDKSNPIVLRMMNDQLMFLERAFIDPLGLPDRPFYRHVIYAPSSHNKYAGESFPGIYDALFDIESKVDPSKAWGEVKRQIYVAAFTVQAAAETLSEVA

[4] = Brain concentrations 1 h after intranasal administration in rats (single time point); assay type: in vivo; conditions: rat, 30 mg/kg i.n., 1 hr post dose; for concentration at 1 h: male, Wistar, in vivo, 30 mg/kg
[5] = Plasma and CSF exposure after i.n. administration in non-human primate; conditions: cynomolgus monkey, 30 min post dose
Experimental: A male cynomolgus monkey (approximately 3.5 kg, non-drug naive) was housed in a stainless steel cage (size 30″ (76.2 cm) wide×31″ (78.74 cm) deep×31.5″ (80.01 cm) high) maintaining temperature of 64-84° F. (17.8° C.-28.9° C.), humidity of 30-70% with alternating 12-hour light/dark cycle as per the USDA Animal Welfare Act (9 CFR, Parts 1, 2, and 3).
The monkey was sedated with 45 mg of ketamine and 0.25 mg of midazolam given as an intramuscular injection prior to test article administration. Sedation was maintained through blood and cerebrospinal fluid (CSF) sample collections with ketamine/midazolam at a starting rate of 20 mg/kg/hr ketamine and 0.4 mg/kg/hr midazolam. […] The device was actuated for a period of 2 min in one nostril (depositing 100 μL). The nose piece was cleaned with a mist of air and then the same procedure was performed in the second nostril (100 μL). Total dose delivered was 100 mg. CSF sample (target of 50 μL) was obtained by an indwelling cannula placed in the intrathecal space at the cisterna magna at 0.5 h post dose. Blood was collected via venipuncture of the femoral vein at 0.5 h post dose and plasma was obtained by low speed centrifugation at 1500×g for 10 minutes. The plasma was flash-frozen on dry ice after separation. Plasma and CSF samples were stored in a freezer set at −70° C., until bioanalysis.
Standard curves were generated in blank artificial CSF. Calibration curves were constructed in the range of 0.113-22.6 μg/mL. Samples were analyzed on Agilent QTOF mass spectrometer by LC/MS. Samples (20 μL) were injected and separated on an Agilent 1290 LC equipped with an Agilent Eclipse Plus C18 column (2.1×100 mm) packed with 1.8 micron stationary phase. The mobile phase consisted of 0.1% formic acid in water and 0.1% formic acid in acetonitrile with an isocratic elution at 2.5% organic. […] Calibration curves were generated with a correlation coefficient >0.99 in a similar manner as described above.

[6] = Pharmacokinetics of i.p. versus i.n. administered 2-PMPA in rat plasma and brain tissues; assay type: in vivo; conditions: 30 mg/kg i.n.; for Kp: male, Wistar, other: intranasal, 30 mg/kg
[7] = as above; assay type: in vivo
Experimental: For i.p. studies, 2-PMPA was administered as a single i.p. dose. All dosing solutions were prepared on the day of the experiment in 50 mM HEPES buffered saline, and pH adjusted to 7.4 before injection. At various time points following drug administration (0.16 h, 0.5 h, 1 h, 3 h, 5 h) post dose, animals (n=3 per time point, except 3 h n=2 animals) were euthanized with CO2, and blood samples were collected in heparinized microtubes by cardiac puncture and tissues (olfactory bulb, frontal cortex, and cerebellum) were dissected and immediately flash frozen (−80° C.). Plasma was prepared by centrifugation immediately after collection of blood samples. All samples were stored in −80° C. until bioanalysis.
The samples were vortexed and centrifuged.
The maximum plasma concentration (Cmax) and time to Cmax (Tmax) were the observed values. The area under the plasma concentration time curve (AUC) value was calculated to the last quantifiable sample (AUClast) by use of the log linear trapezoidal rule. The brain-to-plasma partition coefficients were calculated as a ratio of their AUCs (AUC0-t, brain/AUC0-t, plasma). The elimination half-life (t1/2) was determined by dividing 0.693 by λz.

GCP-II = target: T1, GCP-II (Rattus norvegicus, UniProt P70627); experiment: Ex vivo GCP-II enzymatic (NAAG hydrolyzing) activity in rodent brain tissue after i.n. administration
T1 construct: from tissue; host or cells: rat brain (olfactory bulb, cortex, cerebellum), sonicated in Tris buffer, supernatant
T1 sequence (P70627 whole entry): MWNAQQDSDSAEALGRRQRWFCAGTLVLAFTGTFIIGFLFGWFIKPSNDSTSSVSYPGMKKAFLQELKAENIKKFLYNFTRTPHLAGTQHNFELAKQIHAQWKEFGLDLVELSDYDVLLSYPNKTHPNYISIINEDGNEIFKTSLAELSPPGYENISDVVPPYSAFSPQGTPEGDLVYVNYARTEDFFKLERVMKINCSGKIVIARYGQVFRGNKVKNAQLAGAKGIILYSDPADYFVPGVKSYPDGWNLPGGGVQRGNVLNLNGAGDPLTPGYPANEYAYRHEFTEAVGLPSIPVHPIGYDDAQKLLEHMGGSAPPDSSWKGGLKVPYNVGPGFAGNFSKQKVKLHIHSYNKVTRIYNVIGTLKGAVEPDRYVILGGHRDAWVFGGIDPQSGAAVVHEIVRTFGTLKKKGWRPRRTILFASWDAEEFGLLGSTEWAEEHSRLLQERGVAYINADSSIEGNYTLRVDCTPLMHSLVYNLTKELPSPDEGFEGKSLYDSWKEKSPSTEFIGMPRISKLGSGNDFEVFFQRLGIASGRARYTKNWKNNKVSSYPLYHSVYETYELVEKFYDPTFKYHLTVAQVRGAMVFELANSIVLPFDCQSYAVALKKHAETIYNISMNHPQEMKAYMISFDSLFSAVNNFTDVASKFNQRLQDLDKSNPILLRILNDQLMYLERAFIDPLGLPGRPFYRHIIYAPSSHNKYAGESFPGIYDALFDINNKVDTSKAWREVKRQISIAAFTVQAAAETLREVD
Experimental: Rodent ex vivo GCP-II enzymatic activity: One half of the brain tissues collected following i.n. administration (lh post dose) was used to determine GCP-II NAAG hydrolyzing activity. In brief, tissues were weighed and immersed in 0.5 mL of ice-cold 50 mM Tris Buffer (pH 7.7 at RT). Each tissue was sonicated for 30-60 seconds using an ultrasonic cell disrupter. After a 2 minute spin at 13,000 g, supernatants were analyzed for protein content and NAAG-hydrolyzing activity measurements were performed as previously described (Rojas et al., 2012; Robinson et al., 1987).

[8] = ex vivo, 1 h after 30 mg/kg i.n., relative to untreated control rats

O=C(O)CCC(CCCS)C(=O)O (stereo not shown) [2-MPPA, 2-(3-mercaptopropyl)pentane-dioic acid]
toxicity observed in primate studies [1]: membranoproliferative glomerular nephritis; also recorded: immunological toxicities

O=C(O)CC[C@H](CP(=O)(O)O)C(=O)O [S-2-PMPA]
concentration in cerebellum [2]: 2.51 µg/g
concentration in cortex [2]: 10.4 µg/g
concentration in olfactory bulb [2]: 28.5 µg/g

O=C(O)CC[C@@H](CP(=O)(O)O)C(=O)O [R-2-PMPA]
concentration in cerebellum [2]: 1.78 µg/g
concentration in cortex [2]: 10.1 µg/g
concentration in olfactory bulb [2]: 19.3 µg/g

N-[N-[(S)-1,3-dicarboxypropyl]carbamoyl]-L-cysteine [DCMC]
IC50 [3]: 3.1 nM
concentration in cerebellum [4]: 0.20 µg/g
concentration in cortex [4]: 2.03 µg/g
concentration in olfactory bulb [4]: 2.12 µg/g

O=C(O)CCC(CP(=O)(O)O)C(=O)O (racemic) [2-PMPA, 2-(phosphonomethyl)-pentanedioic acid]
CSF concentration versus the IC50 ([5]; i.n.): > 100 fold
concentration at 0.5 h ([5]; male, CSF, other: intranasal, 100 mg, CSF concentration, 100 mg total i.n.): 320 ng/mL and ~1.5 µM
plasma AUC0-t [6]: 52300 ng·h/mL
Kp ([6]; cerebellum, read-out: brain tissue to plasma ratio based on AUCs, cerebellum): 0.1
Kp ([6]; cortex, read-out: brain tissue to plasma ratio based on AUCs, cortex): 0.71
Kp ([6]; olfactory bulb, read-out: brain tissue to plasma ratio based on AUCs, olfactory bulb): 1.49
share of 2-PMPA reaching the brain accounted from the plasma 2-PMPA ([7]; i.n. route, pooled plasma and brain data from i.p. and i.n.): 2%
Kp ([7]; male, Wistar, rat, brain, intraperitoneal, 30 mg/kg, following systemic administration, read-out: brain-to-plasma ratio): ≤ 0.02
fold improvement in brain-to-plasma ratio, intranasal versus intraperitoneal ([7]; male, Wistar, rat, brain, other: intranasal, 30 mg/kg, intranasal versus other route, read-out: improvement in the brain-to-plasma ratio when administered through an intranasal route): 100
Kp ([7]; male, Wistar, rat, olfactory bulb, cortex and cerebellum, ip, 30 mg/kg, rat, 30 mg/kg i.p., olfactory bulb, cortex and cerebellum, read-out: brain tissue to plasma ratio based on AUCs (AUC0-t, brain/AUC0-t, plasma)): < 0.02
AUC0-t cerebellum ([7]; rat, 30 mg/kg i.n.): 5.27 µg·h/g
AUC0-t cortex ([7]; rat, 30 mg/kg i.n.): 37.7 µg·h/g
AUC0-t olfactory bulb ([7]; rat, 30 mg/kg i.n.): 78.1 µg·h/g
plasma Cmax ([7]; rat, 30 mg/kg i.n.): 24700 ng/mL
AUC0-t cerebellum ([7]; rat, 30 mg/kg i.p.): 0.80 µg·h/g
AUC0-t cortex ([7]; rat, 30 mg/kg i.p.): 0.84 µg·h/g
AUC0-t olfactory bulb ([7]; rat, 30 mg/kg i.p.): 1.15 µg·h/g
AUC0-t plasma ([7]; rat, 30 mg/kg i.p.): 50300 ng·h/mL
apparent clearance ([7]; rat, 30 mg/kg i.p.): 9.71 mL/min/kg
apparent volume of distribution ([7]; rat, 30 mg/kg i.p.): 0.82 L/kg
peak plasma concentration (Cmax) ([7]; rat, 30 mg/kg i.p.): 49500 ng/mL
elimination t1/2 ([7]; rat, 30 mg/kg i.p., plasma): 59.4 min
inhibition of GCP-II activity in cerebellum (GCP-II; [8]): 70%±5%
inhibition of GCP-II activity in cortex (GCP-II; [8]): 100%
inhibition of GCP-II activity in olfactory bulb (GCP-II; [8]): 100%
inhibition of brain GCP-II enzymatic activity ex-vivo (GCP-II; i.n. administration, summary statement): complete inhibition
concentration at 1 h ([4]; read-out: concentration in cerebellum): 2130 ng/g
concentration at 1 h ([4]; read-out: concentration in cortex): 10300 ng/g
concentration at 1 h ([4]; read-out: concentration in olfactory bulb): 31200 ng/g
